Source: ChEMBL document CHEMBL5550158, “Novel 4-triazole phenyl amide (4-TPA) molecules: Potent promoters of α-synuclein fibril disassembly” (Eur J Med Chem, 2024)
Active and inactive are the calls of the source. The calls are words filed in the database; no cut-off is given here.

Assays:
SH-SY5Y [1] = assay: Cytotoxicity against PFF-induced human SH-SY5Y cells assessed as increase in LDH release incubated for 24 hrs by fluorescence based analysis; assay type: functional
SH-SY5Y [2] = assay: Neuroprotective activity against PFF-induced human SH-SY5Y cells assessed as decrease in autophagosome level measured for 6 hrs by MDC fluorescence assay; assay type: functional, cell-based
[3] = Half life in ICR mouse at 10 mg/kg, ip measured upto 7 hrs by HPLC analysis; assay type: ADME, organism-based; details: in vivo
[4] = Drug concentration in ICR mouse plasma at 10 mg/kg, iv by LC-MS/MS analysis; assay type: ADME, organism-based; details: in vivo
SH-SY5Y [5] = assay: Neuroprotective activity against PFF-induced human SH-SY5Y cells assessed as diffusion of Cy5-PFF and lysosome into cytoplasm measured for 12 hrs by olympus confocal microscopic analysis; assay type: functional, cell-based
SH-SY5Y [6] = assay: Induction of ROS level in PFF-induced human SH-SY5Y cells measured for 12 hrs by DCFH-DA staining based analysis; assay type: functional, cell-based
[7] = AUC (0 to infinity) in ICR mouse at 10 mg/kg, iv measured upto 7 hrs by HPLC analysis; assay type: ADME, organism-based; details: in vivo
[8] = Drug concentration in ICR mouse brain at 10 mg/kg, iv by LC-MS/MS analysis; assay type: ADME, organism-based; details: in vivo
[9] = Half life in ICR mouse at 10 mg/kg, iv measured upto 7 hrs by HPLC analysis; assay type: ADME, organism-based; details: in vivo
[10] = Ratio of drug concentration in ICR mouse brain to plasma at 10 mg/kg, iv by LC-MS/MS analysis; assay type: ADME, organism-based; details: read-out: BPR
[11] = AUC (0 to infinity) in ICR mouse at 10 mg/kg, ip measured upto 7 hrs by HPLC analysis; assay type: ADME, organism-based; details: in vivo
[12] = Clearance in ICR mouse plasma at 10 mg/kg, iv measured upto 7 hrs by HPLC analysis; assay type: ADME, organism-based
[13] = Clearance in ICR mouse plasma at 10 mg/kg, ip measured upto 7 hrs by HPLC analysis; assay type: ADME, organism-based; details: in vivo
[14] = Bioavailability in ICR mouse at 10 mg/kg, ip or 10 mg/kg, iv measured upto 7 hrs by HPLC analysis; assay type: ADME, organism-based; details: in vivo
[15] = Tmax in ICR mouse at 10 mg/kg, ip measured upto 7 hrs by HPLC analysis; assay type: ADME, organism-based; details: in vivo

With `COc1ccc(-n2cc(-c3ccc(NC(=O)c4cc(Br)cc(OC)c4)cc3)nn2)cc1` as the compound, how does the Activity (SH-SY5Y [1]) read?
The Activity was ~30%.

What about the Activity (SH-SY5Y [2]) of the same compound?
Its Activity is “inactive”.

With `COc1cc([N+](=O)[O-])ccc1-n1cc(-c2ccc(NC(=O)c3ccc(NC(C)=O)cc3)cc2)nn1` as the compound, how does the half-life [3] read?
The half-life was 69 min.

What about the Cp [4] of the same compound?
The Cp was 17180 ng/mL.

And the Activity (SH-SY5Y [1])?
The Activity was ~30%.

What about the Activity (SH-SY5Y [5]) of the same compound?
Its Activity is “Active”.

And the Activity (SH-SY5Y [6])?
The Activity was “inactive”.

What about the AUC(0-inf) [7] of the same compound?
The AUC(0-inf) was 41300 ng·h/mL.

What about the Ct [8] of the same compound?
Its Ct is 1.76 µg/mL.

And the half-life [9]?
The half-life was 48 min.

And the Kp [10]?
Its Kp is 0.1.

And the AUC [11]?
The AUC was 1793.287 mg·min/L.

What about the clearance [12] of the same compound?
Its clearance is 4 mL/min/kg.

What about the Activity (SH-SY5Y [2]) of the same compound?
The Activity was “Active”.

And the CL [13]?
Its CL is 2 mL/min/kg.

What about the bioavailability [14] of the same compound?
The bioavailability was 72.4%.

And the Tmax [15]?
The Tmax was 30 min.
